ChEMBL document CHEMBL3727350, “Agents and methods for treating ischemic and other diseases” (2014)
Active and inactive are the calls of the source. The calls are words filed in the database; no cut-off is given here.

Target: Transient receptor potential cation channel subfamily M member 7 (Mus musculus) (UniProt Q923J1)
Assay: Inhibition of Tet-induced Flag-tagged mouse TRPM7 expressed in HEK293 cells assessed as inhibition of channel-mediated cell death in presence of Mg2+ incubated for 24 to 48 hrs by propidium iodide uptake assay
Assay type: cell-based
Design: concentration or dose not given beside the values
Details: not given

Chain of Transient receptor potential cation channel subfamily M member 7 (Mus musculus) (Q923J1 whole entry): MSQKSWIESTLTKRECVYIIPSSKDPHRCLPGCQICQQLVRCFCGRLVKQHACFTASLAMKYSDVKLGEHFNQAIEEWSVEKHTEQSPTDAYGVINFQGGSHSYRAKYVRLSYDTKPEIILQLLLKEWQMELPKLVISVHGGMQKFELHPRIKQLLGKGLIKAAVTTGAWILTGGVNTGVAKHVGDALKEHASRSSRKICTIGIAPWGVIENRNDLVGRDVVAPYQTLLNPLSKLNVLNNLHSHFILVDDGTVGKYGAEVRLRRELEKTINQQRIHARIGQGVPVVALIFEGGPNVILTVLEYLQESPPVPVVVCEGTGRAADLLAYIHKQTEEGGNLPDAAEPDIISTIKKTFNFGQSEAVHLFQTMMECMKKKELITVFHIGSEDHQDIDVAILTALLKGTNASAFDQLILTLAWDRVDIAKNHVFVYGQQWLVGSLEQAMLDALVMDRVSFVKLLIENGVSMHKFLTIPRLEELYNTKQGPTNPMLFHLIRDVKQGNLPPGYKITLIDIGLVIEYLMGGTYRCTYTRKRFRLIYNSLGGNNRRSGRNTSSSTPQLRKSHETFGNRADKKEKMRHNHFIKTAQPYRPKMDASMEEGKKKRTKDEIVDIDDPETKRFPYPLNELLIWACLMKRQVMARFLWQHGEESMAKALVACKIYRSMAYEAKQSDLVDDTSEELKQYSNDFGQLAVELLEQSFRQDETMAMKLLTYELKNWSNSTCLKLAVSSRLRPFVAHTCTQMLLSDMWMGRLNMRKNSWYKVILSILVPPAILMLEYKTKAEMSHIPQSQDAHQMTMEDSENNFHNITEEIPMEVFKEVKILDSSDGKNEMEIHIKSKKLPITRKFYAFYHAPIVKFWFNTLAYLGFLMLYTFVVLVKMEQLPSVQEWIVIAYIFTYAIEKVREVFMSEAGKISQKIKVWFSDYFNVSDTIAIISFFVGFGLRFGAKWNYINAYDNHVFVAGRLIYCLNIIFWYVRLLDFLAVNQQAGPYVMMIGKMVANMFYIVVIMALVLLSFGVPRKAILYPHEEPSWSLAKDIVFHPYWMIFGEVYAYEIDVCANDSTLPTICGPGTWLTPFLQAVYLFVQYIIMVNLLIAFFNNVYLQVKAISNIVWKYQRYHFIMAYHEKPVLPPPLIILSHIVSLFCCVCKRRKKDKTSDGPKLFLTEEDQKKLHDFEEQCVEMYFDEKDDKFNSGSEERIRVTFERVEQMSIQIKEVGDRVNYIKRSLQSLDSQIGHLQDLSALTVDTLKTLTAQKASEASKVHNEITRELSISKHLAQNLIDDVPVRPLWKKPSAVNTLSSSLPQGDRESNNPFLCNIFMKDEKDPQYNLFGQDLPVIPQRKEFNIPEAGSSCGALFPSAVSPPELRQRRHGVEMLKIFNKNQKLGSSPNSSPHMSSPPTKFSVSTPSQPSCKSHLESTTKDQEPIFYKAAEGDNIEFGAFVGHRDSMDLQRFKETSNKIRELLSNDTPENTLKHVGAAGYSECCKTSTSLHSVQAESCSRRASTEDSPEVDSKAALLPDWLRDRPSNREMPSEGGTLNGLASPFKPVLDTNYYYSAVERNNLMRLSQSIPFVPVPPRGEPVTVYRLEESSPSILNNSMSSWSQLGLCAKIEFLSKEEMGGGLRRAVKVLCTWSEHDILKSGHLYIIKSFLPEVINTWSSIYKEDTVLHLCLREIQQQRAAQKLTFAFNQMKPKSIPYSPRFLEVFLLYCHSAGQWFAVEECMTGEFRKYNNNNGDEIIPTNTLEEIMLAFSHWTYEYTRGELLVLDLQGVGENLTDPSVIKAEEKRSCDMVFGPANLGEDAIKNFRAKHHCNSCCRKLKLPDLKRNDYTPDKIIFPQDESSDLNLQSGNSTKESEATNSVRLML

Row | SMILES | inhibition
1 | COc1cccc2c1C(=O)c1c(O)c3c(c(O)c1C2=O)C[C@@](O)(C(C)=O)C[C@@H]3O[C@H]1C[C@H](N)[C@H](O)[C@H](C)O1 | Dose-dependent effect
2 | CC[C@H]1CN2CCc3cc(OC)c(OC)cc3[C@@H]2C[C@@H]1C[C@H]1NCCc2cc(OC)c(OC)cc21 | Active

Same assay, conditions: concentration not given here

Row | SMILES | inhibition [%]
3 | CCOC(=O)c1c(C)n(-c2ccccc2)c2ccc(OC(=O)C(c3ccccc3)C3CCCC3)cc12 (stereo unspecified) | 30
4 | Cc1cc(C(=O)Nc2ccc(C(C)(C)C)cc2)nn1Cc1c(Cl)cccc1Cl | 70
5 | COC(=O)C(O)(c1ccc(NC(=O)Nc2ccc(Cl)cc2)cc1)C(F)(F)F (stereo unspecified) | 50
6 | N#C/C(=N\Nc1ccc(Cl)c(Cl)c1)C(=O)C1CC1 | 40
7 | Cc1nc(N/C=N/O)c(Br)cc1Br | 30
8 | Fc1ccc(C2CN3C(=N2)C=Cc2ccccc23)cc1 (stereo unspecified) | < 30
9 | CN(C)c1cccc(N(C)C)c1CNC(=O)Nc1ccccc1 | < 30
10 | COc1ccc(-c2[nH]ncc2CN2CCN(c3ccc(F)cc3)CC2)cc1 | < 30
11 | OC1(C(F)(F)F)CC(c2cccs2)=NO1 (stereo unspecified) | 30
12 | CN(C)C=O.O=C(Nc1nnc(Sc2ccnc3cc(Cl)ccc23)s1)c1sc2ccccc2c1Cl | 80
13 | CO[C@@H]1O[C@@H]2CO[C@H](COC(C)=O)[C@]3(OC(C)=O)CO[C@H](OC2[C@H](OC(C)=O)[C@H]1OC(C)=O)[C@@H](OC(C)=O)[C@@H]3OC(C)=O (stereo partly specified) | 40
14 | Brc1ccc2nc(C34CC5CC(CC(C5)C3)C4)cn2c1 | 60
15 | CC(=O)Nc1cc(C)ccc1C | < 30
16 | CCOC(=O)C(C#N)Cc1c(C)c(C)c(C)c(C)c1C (stereo unspecified) | < 30
17 | Cc1cc(O)nc2c1c(C)nn2C | < 30
18 | O=C1NC(=S)S/C1=C/c1ccc(Cl)cc1Cl | 40
19 | O=C(Sc1ccc(C(F)(F)F)cn1)c1ccc(Cl)cc1 | < 30
20 | O=C(Nc1ccc(CN2CCS(=O)(=O)CC2)cc1)c1ccc(C(F)(F)F)cc1 | 40
21 | CN(/N=C/Cc1nnnn1-c1ccc(Cl)cc1)c1ccccc1 | < 30
22 | O=S(=O)(c1cc(Cl)sc1Cl)N1CCN(CCc2ccccc2)CC1 | < 30
23 | Clc1ccc2c(N3CCCCC3)ccnc2c1 | < 30
24 | COc1ccccc1N1CCN(Cc2c[nH]c3ccccc23)CC1 | 70
25 | Cc1onc(-c2c(Cl)cccc2Cl)c1/C=C1/C(=O)Nc2ccccc21 | 30
26 | N#C/C(=N\Nc1ccc(Cl)cc1)C(N)=S | 60
27 | Cc1onc(-c2ccccc2Cl)c1C(=O)Nc1cccc2cccnc12 | 60
28 | O=[N+]([O-])c1cccc(-c2ccc(/C=N/NC(=S)Nc3cccc(F)c3)o2)c1 | 30
29 | c1ccc2c(CNCc3cccc4ccccc34)cccc2c1 | 70

Row | SMILES | inhibition [%]
30 | NC(=O)C1CCN(CCS(=O)(=O)c2ccccc2)CC1 | 30
31 | Cc1c(-c2nc(-c3ccc(C(C)(C)C)cc3)no2)n(C)oc1=O | < 30
32 | Clc1ccc(CO/N=C/c2nc3ccccc3s2)cc1 | 40
33 | COc1ccc(NC(=O)CSc2nnc(C)n2-c2ccc(OCc3ccccc3)cc2)cc1 | 50
34 | Cc1noc(C)c1C(=O)OCc1ccc(-c2ccc(F)cc2F)o1 | 50
35 | COc1ccccc1C1CCN(Cc2c[nH]nc2-c2ccccc2)CC1 | 80
36 | CC(C)Cc1ccc(C(C)c2nnc(-c3cccc([N+](=O)[O-])c3)o2)cc1 (stereo unspecified) | 50
37 | CCOC(=O)c1ccc2c(c1)CC/C(=C\c1cccc(C(F)(F)F)c1)C2=O | < 30
38 | CC1(C)CC(=O)C=C(Sc2ccc(C#N)cc2[N+](=O)[O-])S1 | 50
39 | O=C(CCSCc1ccc(Cl)cc1)Nc1ccc(Cl)cc1 | 60
40 | Nc1nc(-c2ccc(-c3ccccc3)cc2)cs1 | 40
41 | COc1ccc(CCN2C(=O)CS/C2=N\c2ccc(C(C)(C)C)cc2)cc1OC | < 30
42 | O=C1NC(=O)/C(=C/c2cccc(C#Cc3ccccc3)c2)S1 | 60
43 | Cc1ccccc1NC(=O)NCc1cccs1 | 60
44 | O=C(Oc1ccc(Oc2ccccc2)cc1)N1CCC(OC(=O)n2ccnc2)CC1 | < 30
45 | N#Cc1ccc(NC(=O)Nc2ccc(OCc3ccccc3)cc2)cc1 | 80
46 | Clc1ccc(-c2noc(-c3sccc3Cl)n2)cc1 | 60
47 | C#CCOC(=O)NC(=O)c1c(-c2ccc(Cl)cc2)n[nH]c1SC | < 30
48 | Cc1ccc(C(=O)Nc2ccc(Oc3ccc(C(C)(C)C)cc3)nc2)cc1 | 70
49 | CCc1cc2c(Sc3nnc(N)s3)ncnc2s1 | 60
50 | Cc1ccc([N+](=O)[O-])c(C(=O)NNC(=S)Nc2cccc(Cl)c2)c1 | 60
51 | CC1(C)C=Cc2ccc(OCC(=O)Nc3ccccc3)cc2O1 | 30
52 | CSC1=N/C(=C\c2ccc(Cl)cc2)C(=O)N1Cc1ccco1 | 60
53 | N=C(NS(=O)(=O)c1cc(Cl)c(Oc2ccc([N+](=O)[O-])cc2Cl)c(Cl)c1)c1cccnc1 | 70
54 | NNC(=O)CSc1ccccc1[N+](=O)[O-] | 40
55 | Cc1ccc(OC/C(N)=N/OC(=O)c2cc(C)on2)cc1 | < 30
56 | CC(=O)Nc1ccc(S(=O)(=O)Nc2ccccc2C#N)cc1 | < 30

Row | SMILES | inhibition [%]
57 | O=S1(=O)CC=C(S(=O)(=O)c2ccccc2)C1 | < 30
58 | C#Cc1cccc(NC(=O)c2c(-c3c(Cl)cccc3Cl)noc2C)c1 | < 30
59 | O=C(/C=C/c1ccc(OC(F)(F)F)cc1)NCc1ccco1 | 60
60 | N=C(NC(=O)c1cccc(Cn2cc(C(F)(F)F)ccc2=O)c1)c1ccc(Cl)cc1 | 40
61 | Cc1cc(SCc2nnc(-c3ccc([N+](=O)[O-])c(C)c3)o2)c(C)cc1Cl | 80
62 | O=C(O)CSc1cc(C(F)(F)F)nc2ccccc12 | 30
63 | Cc1ccc(NC(=O)c2cccc3c2-c2ccccc2C3)cc1 | < 30
64 | CSc1scc(NC(=O)Nc2cccc(Cl)c2)c1S(=O)(=O)C(C)C | 60
65 | Cc1cc(C(=O)NNC(=O)Nc2ccc(Cl)cc2)no1 | 30
66 | CC(C)(C)NC(=O)CSc1nnc([C@H](Cc2ccccc2)NC(=O)OC(C)(C)C)o1 | 30
67 | O=C(Nc1cccc(C(F)(F)F)c1)Nc1nnc(C2CC2)s1 | 50
68 | CNC(=O)c1cc([N+](=O)[O-])cc2c1-c1ccc([N+](=O)[O-])cc1C2=O | < 30
69 | O=C(Nc1ccc(OC(F)(F)F)cc1)Nc1cc(-c2ccccc2)n[nH]1 | < 30
70 | Cc1csc2ncnc(N3CCN(S(=O)(=O)c4ccc(Cl)cc4)CC3)c12 | 70
71 | O=C1NC(=S)S/C1=C\c1cccc([N+](=O)[O-])c1 | < 30
72 | COc1ccc(Nc2cc(=O)n(-c3ccccc3)c3c2c(=O)n(C)c(=O)n3C)cc1 | 60
73 | Cc1csc(-c2nc(-c3ccc(Cl)cc3)no2)c1Cl | < 30
74 | FC(F)(F)c1cccc(OCc2ccc(-c3ncns3)cc2)c1 | 50
75 | CC(C)(C)c1ccc(N2C(=N)SCC2=O)cc1 | 40
76 | CCc1ccc2[nH]c(C(=O)N(C)c3ccc(F)cc3F)cc2c1 | < 30
77 | c1ccc2c(CN3CCN(Cc4ccc5c(c4)OCO5)CC3)c[nH]c2c1 | 60
78 | Clc1cc(Cl)c(N/N=C/c2cc(C#Cc3ccccc3)cs2)c(Cl)c1 | 50
79 | COc1ccccc1NC(=O)Nc1nn(C)c2cccc(N(C)C)c12 | 60
80 | CC(C)(C)c1ccc(NC(=O)/C=C/C(=O)O)cc1 | < 30
81 | CCCSC(=S)c1c(C)nn(-c2ccc(C)cc2)c1O | 50
